# Source: ChEMBL document CHEMBL1201862, “PubChem BioAssay data set” (2004)
#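 Growth conditions: 96-well plates. Treatment: test compound, 48 hours, 5 concentrations. Analysis: linear interpolation between bracketing concentrations; unreached endpoints set to highest concentration. GI50 marks 50% less growth.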 Activity calls are given as the source filed them. Cut-off read from the data, not from the text of the source: active = GI50 up to about 1.1 µM and inactive = higher.
# Legend:
# Experiment in all cases: growth of human tumour cells (NCI), 48 h
# [1] = test system: A498
# [2] = test system: ACHN
# [3] = test system: COLO 205
# [4] = test system: HL-60
# [5] = test system: IGROV-1
# [6] = test system: LOX IMVI
# [7] = test system: MCF7
# [8] = test system: MDA-MB-231
# [9] = test system: MDA-N
# [10] = test system: NCI-H522
# [11] = test system: PC-3
# [12] = test system: RPMI-8226
# [13] = test system: SF-295
# [14] = test system: SN12C
# [15] = test system: SNB-19
# [16] = test system: SR
# [17] = test system: SW-620
# [18] = test system: U-251
# [19] = test system: SK-OV-3
# [20] = test system: UACC-62
SMILES,GI50 [1],GI50 [2],GI50 [3],GI50 [4],GI50 [5],GI50 [6],GI50 [7],GI50 [8],GI50 [9],GI50 [10],GI50 [11],GI50 [12],GI50 [13],GI50 [14],GI50 [15],GI50 [16],GI50 [17],GI50 [18],GI50 [19],GI50 [20]
O=C(Nc1cc2cc([N+](=O)[O-])ccc2oc1=O)c1cccs1,> 100 µM (inactive),49 µM (inactive),25.2 µM (inactive),16.7 µM (inactive),34.4 µM (inactive),20.3 µM (inactive),19.6 µM (inactive),34.9 µM (inactive),46.1 µM (inactive),24.5 µM (inactive),37.8 µM (inactive),34 µM (inactive),54.2 µM (inactive),40.5 µM (inactive),> 100 µM (inactive),35 µM (inactive),49.9 µM (inactive),19.8 µM (inactive),,
OCC1(CNc2cc(Cl)ncn2)CCC1,> 100 µM (inactive),> 100 µM (inactive),> 100 µM (inactive),> 100 µM (inactive),> 100 µM (inactive),> 100 µM (inactive),> 100 µM (inactive),> 100 µM (inactive),> 100 µM (inactive),> 100 µM (inactive),> 100 µM (inactive),> 100 µM (inactive),> 100 µM (inactive),> 100 µM (inactive),,> 100 µM (inactive),> 100 µM (inactive),> 100 µM (inactive),,
CC(=O)Oc1ccc2c(c1)c1c(OC(C)=O)c3ccccc3c(OC(C)=O)c1n2Cc1cccc(C)c1,29.3 µM (inactive),31.8 µM (inactive),60.5 µM (inactive),42.4 µM (inactive),21.2 µM (inactive),,44.3 µM (inactive),31.1 µM (inactive),60.4 µM (inactive),19.6 µM (inactive),52.4 µM (inactive),20.5 µM (inactive),19.5 µM (inactive),> 100 µM (inactive),67 µM (inactive),24.3 µM (inactive),,22.3 µM (inactive),20.4 µM (inactive),45.4 µM (inactive)
COC(=O)c1c(O)ccc2c1c1cc3ccccc3c(O)c1n2Cc1ccccc1Cl,> 100 µM (inactive),22.4 µM (inactive),16.8 µM (inactive),32.8 µM (inactive),19.4 µM (inactive),,30.3 µM (inactive),32.3 µM (inactive),23.7 µM (inactive),8.26 µM (inactive),30 µM (inactive),20.4 µM (inactive),18.8 µM (inactive),32.7 µM (inactive),59.4 µM (inactive),25.4 µM (inactive),,31.4 µM (inactive),12.9 µM (inactive),23.4 µM (inactive)
CCS(=O)(=O)c1c2cc(OC)ccc2nc2ccc(OC)cc12,> 100 µM (inactive),> 100 µM (inactive),> 100 µM (inactive),> 100 µM (inactive),> 100 µM (inactive),> 100 µM (inactive),> 100 µM (inactive),> 100 µM (inactive),> 100 µM (inactive),> 100 µM (inactive),> 100 µM (inactive),,> 100 µM (inactive),> 100 µM (inactive),> 100 µM (inactive),> 100 µM (inactive),> 100 µM (inactive),> 100 µM (inactive),> 100 µM (inactive),> 100 µM (inactive)
O[C@H]1[C@H](O)[C@@H](O)[C@@]2(O)C[C@@H](O)[C@@H]1N2,> 100 µM (inactive),> 100 µM (inactive),> 100 µM (inactive),> 100 µM (inactive),> 100 µM (inactive),> 100 µM (inactive),> 100 µM (inactive),> 100 µM (inactive),> 100 µM (inactive),> 100 µM (inactive),> 100 µM (inactive),,> 100 µM (inactive),> 100 µM (inactive),> 100 µM (inactive),> 100 µM (inactive),> 100 µM (inactive),> 100 µM (inactive),> 100 µM (inactive),> 100 µM (inactive)
O=C1/C(=C/c2ccc(Cl)cc2)N=C(c2ccccc2)N1C1Nc2cc3c(cc2S1)NC(N1C(=O)/C(=C/c2ccc(Cl)cc2)N=C1c1ccccc1)S3 (stereo not given),> 100 µM (inactive),> 100 µM (inactive),,0.336 µM (active),47.6 µM (inactive),31.7 µM (inactive),42.2 µM (inactive),> 100 µM (inactive),45.2 µM (inactive),18.7 µM (inactive),40.7 µM (inactive),23.8 µM (inactive),73.5 µM (inactive),,,6.18 µM (inactive),22 µM (inactive),32.3 µM (inactive),> 100 µM (inactive),
CN(C)c1cc2ccccc2oc1=O,> 100 µM (inactive),> 100 µM (inactive),> 100 µM (inactive),> 100 µM (inactive),> 100 µM (inactive),> 100 µM (inactive),> 100 µM (inactive),> 100 µM (inactive),> 100 µM (inactive),> 100 µM (inactive),> 100 µM (inactive),> 100 µM (inactive),> 100 µM (inactive),> 100 µM (inactive),> 100 µM (inactive),> 100 µM (inactive),> 100 µM (inactive),> 100 µM (inactive),,> 100 µM (inactive)
Clc1cccc2[nH]ncc12,> 100 µM (inactive),> 100 µM (inactive),74.6 µM (inactive),> 100 µM (inactive),> 100 µM (inactive),58.1 µM (inactive),64.6 µM (inactive),> 100 µM (inactive),> 100 µM (inactive),26.5 µM (inactive),> 100 µM (inactive),> 100 µM (inactive),> 100 µM (inactive),> 100 µM (inactive),> 100 µM (inactive),30.6 µM (inactive),> 100 µM (inactive),> 100 µM (inactive),> 100 µM (inactive),> 100 µM (inactive)
C/C(=N\Nc1nc2ccccc2o1)c1cc2ccccc2cn1,15 µM (inactive),< 0.01 µM (active),< 0.01 µM (active),< 0.01 µM (active),< 0.01 µM (active),,< 0.01 µM (active),< 0.01 µM (active),0.942 µM (active),< 0.01 µM (active),< 0.01 µM (active),< 0.0235 µM (active),0.174 µM (active),< 0.01 µM (active),0.547 µM (active),0.112 µM (active),< 0.01 µM (active),< 0.0215 µM (active),0.0474 µM (active),0.0775 µM (active)
C/C=C1/CN2[C@@H](C3=C[C@@H]4[C@@H]5N(C3=O)c3ccccc3[C@@]53CCN5C/C(=C/C)[C@@H]4C[C@H]53)C[C@@]34c5ccccc5N5C(=O)CC=C([C@H]1C[C@H]23)[C@H]54 [ISOSUNGUCINE],6.92 µM (inactive),5.81 µM (inactive),1.81 µM (inactive),1.03 µM (active),,,3.46 µM (inactive),2.43 µM (inactive),3.84 µM (inactive),6.9 µM (inactive),2.7 µM (inactive),,7.73 µM (inactive),3.01 µM (inactive),7.52 µM (inactive),1.19 µM (inactive),2.92 µM (inactive),2.23 µM (inactive),8.77 µM (inactive),2.86 µM (inactive)
